| SMILES | flash point |
| --- | --- |
| CC(C)c1cccc(C(C)C)c1 [1,3-diisopropylbenzene] | 76.8 °C |
| CCCc1ccccc1 [propylbenzene] | 42.1 °C |

Remark: another data set of the same source

| SMILES | flash point |
| --- | --- |
| C[Si](C)(C)CN=[N+]=[N-] [(AZIDOMETHYL)TRIMETHYLSILANE] | 6.00 °C |
| CC(=O)OCC[Si](C)(C)Cl [ACETOXYETHYLDIMETHYLCHLOROSILANE] | 63.00 °C |
| CC(=O)OCC[Si](C)(Cl)Cl [ACETOXYETHYLMETHYLDICHLOROSILANE] | 65.00 °C |
| CCO[Si](CCOC(C)=O)(OCC)OCC [ACETOXYETHYLTRIETHOXYSILANE] | 99.00 °C |
| CC(=O)O[Si](C)(C)C [ACETOXYTRIMETHYLSILANE] | 4.00 °C |

The remaining lines, values ahead:

| flash point | SMILES |
| --- | --- |
| 88.00 °C | C=CCNCCC[Si](OC)(OC)OC [3-(N-ALLYLAMINO)PROPYLTRIMETHOXYSILANE] |
| 104.00 °C | CCO[Si](CCCN)(OCC)OCC [3-AMINOPROPYLTRIETHOXYSILANE] |
| 83.00 °C | CO[Si](CCCN)(OC)OC [3-AMINOPROPYLTRIMETHOXYSILANE] |
| 59.00 °C | C[Si](C)(C)CCCN [3-AMINOPROPYLTRIMETHYLSILANE] |
| 68.00 °C | COCCOCCO[Si](CCCN)(OCCOCCOC)OCCOCCOC [3-AMINOPROPYLTRIS(METHOXYETHOXYETHOXY)SILANE] |
| 85.00 °C | C=CC(=O)OCCC[Si](C)(C)OC [(3-ACRYLOXYPROPYL)DIMETHYLMETHOXYSILANE] |
| 123.00 °C | C=CC(=O)OCCC[Si](OC)(OC)OC [(3-ACRYLOXYPROPYL)TRIMETHOXYSILANE] |
| 93.00 °C | C=CC(=O)OCCC[Si](O[Si](C)(C)C)(O[Si](C)(C)C)O[Si](C)(C)C [(3-ACRYLOXYPROPYL)TRIS(TRIMETHYLSILOXY)SILANE] |
| 8.00 °C | CC(=O)[Si](C)(C)C [ACETYLTRIMETHYLSILANE] |
| 62.00 °C | C=CC(=O)OC[Si](OC)(OC)OC [ACRYLOXYMETHYLTRIMETHOXYSILANE] |
| 76.00 °C | C=CC[Si](Cl)(Cl)CCCCl [ALLYL(3-CHLOROPROPYL)DICHLOROSILANE] |
| 102.00 °C | C=CC[Si](C)(C)c1ccc(OC)cc1 [ALLYL(4-METHOXYPHENYL)DIMETHYLSILANE] |
| 27.00 °C | C=CC[Si](C)(C)CCl [ALLYL(CHLOROMETHYL)DIMETHYLSILANE] |
| 10.00 °C | C=CCN[Si](C)(C)C [ALLYLAMINOTRIMETHYLSILANE] |
| -4.00 °C | C=CC[SiH](Cl)Cl [ALLYLDICHLOROSILANE] |
| 32.00 °C | C=CCO[Si](C)(C)C(C)(C)C [ALLYLOXY-t-BUTYLDIMETHYLSILANE] |
| 76.00 °C | C=CC[Si](Cl)(Cl)c1ccccc1 [ALLYLPHENYLDICHLOROSILANE] |
| 31.00 °C | C=CC[Si](Cl)(Cl)Cl [ALLYLTRICHLOROSILANE] |
| 47.00 °C | C=CC[Si](OCC)(OCC)OCC [ALLYLTRIETHOXYSILANE] |
| 76.00 °C | C=CC[Si](C(C)C)(C(C)C)C(C)C [ALLYLTRIISOPROPYLSILANE] |
| 7.00 °C | C=CC[Si](C)(C)C [ALLYLTRIMETHYLSILANE] |
| 73.00 °C | C[Si](C)(Cl)Cc1ccccc1 [BENZYLDIMETHYLCHLOROSILANE] |
| 148.00 °C | CCO[Si](CCCNCCN)(OCC)OCC [N-(2-AMINOETHYL)-3-AMINOPROPYLTRIETHOXYSILANE] |
| 150.00 °C | CO[Si](CCCNCCN)(OC)OC [N-(2-AMINOETHYL)-3-AMINOPROPYLTRIMETHOXYSILANE] |
| 66.00 °C | COCN(Cc1ccccc1)C[Si](C)(C)C [N-BENZYL-N-METHOXYMETHYL-N-(TRIMETHYLSILYLMETHYL)AMINE] |
| 180.00 °C | CO[Si](OC)(OC)c1cccc(N)c1 [m-AMINOPHENYLTRIMETHOXYSILANE] |

Remark: another data set of the same source

| SMILES | flash point |
| --- | --- |
| CC(C)[O-].CC(C)[O-].CCOC(=O)CC(C)=O.[Al+2] [ALUMINUM DIISOPROPOXIDE ETHYLACETOACETATE] | 50.00 °C |
| CCCC[O-].CCCC[O-].CCCC[O-].[Sb+3] [ANTIMONY(III) n-BUTOXIDE] | 68.00 °C |
| C1CCC(PC2CCCCC2)CC1 [DICYCLOHEXYLPHOSPHINE] | 110.00 °C |
| CCCC[O-].CCCC[O-].CCCC[O-].CCCC[O-].CCCC[O-].[Nb+5] [NIOBIUM(V) n-BUTOXIDE] | 90.00 °C |
| CCCC[O-].CCCC[O-].CCCC[O-].CCCC[O-].CCCC[O-].[Ta+5] [TANTALUM(V) n-BUTOXIDE] | 66.00 °C |

Continued, values first:

| flash point | SMILES |
| --- | --- |
| -18.00 °C | [CH3][Al]([CH3])[Cl] [DIMETHYLALUMINUM CHLORIDE] |
| 5.00 °C | CC(C)[O][Al]([CH3])[CH3] [DIMETHYLISOPROPOXYALUMINUM] |
| 260.00 °C | CCCCN(CCCC)C(=S)[S-].CCCCN(CCCC)C(=S)[S-].[Ni+2] [NICKEL DI-n-BUTYLDITHIOCARBAMATE] |
| 102.00 °C | CC(C)(C)CCCCCC(=O)[O-].[Ag+] [SILVER NEODECANOATE] |
| 118.00 °C | CCCCCCCCCCCCCC[P+](CCCCCC)(CCCCCC)CCCCCC.[Cl-] [TETRADECYL(TRIHEXYL)PHOSPHONIUM CHLORIDE] |
| 22.00 °C | CC(C)[O-].CC(C)[O-].CC(C)[O-].[Cl-].[Ti+4] [TITANIUM CHLORIDE TRIISOPROPOXIDE] |

Remark: another data set of the same source

| SMILES | flash point |
| --- | --- |
| CC(C)c1cccc(C(C)C)c1 [1,3-diisopropylbenzene] | 76 °C |
| CCCc1ccccc1 [propylbenzene] | 47 °C |

Remark: another data set of the same source

| SMILES | flash point |
| --- | --- |
| CC(C)(C)C(C)(C)C [2,2,3,3-Tetramethylbutane] | -0 °C |
| CC(C)C(C)C(C)(C)C (centres undefined) [2,2,3,4-Tetramethylpentane] | 11 °C |
| CC(C)C(C)(C)C [2,2,3-Trimethylbutane] | -26 °C |
| CCCC(C)C(C)(C)C (centres undefined) [2,2,3-Trimethylhexane] | 15 °C |
| CC(C)(C)CC(C)(C)C [2,2,4,4-Tetramethylpentane] | 3 °C |
| CC(C)(C)CCC(C)(C)C [2,2,5,5-Tetramethylhexane] | 31 °C |
| CC(C)CCC(C)(C)C [2,2,5-Trimethylhexane] | 13 °C |
| CCC(C)C(C)(C)C(C)C (centres undefined) [2,3,3,4-Tetramethylhexane] | 31 °C |
| CCC(C)(C)C(C)C [2,3,3-Trimethylpentane] | -0 °C |
| CCC(C)C(C)C(C)C (centres undefined) [2,3,4-Trimethylhexane] | 15 °C |
| CCC(C)CC(C)C(C)C (centres undefined) [2,3,5-Trimethylheptane] | 31 °C |
| CC(C)CC(C)C(C)C (centres undefined) [2,3,5-Trimethylhexane] | 15 °C |
| CCC(C)(CC)C(C)C [2,3-Dimethyl-3-ethylpentane] | 15 °C |
| CCCC(C)C(C)C (centres undefined) [2,3-Dimethylhexane] | 10 °C |
| CCC(C)C(C)C (centres undefined) [2,3-Dimethylpentane] | -15 °C |
| CCC(C)C(C)CC(C)C (centres undefined) [2,4,5-Trimethylheptane] | 31 °C |
| CCC(C)CCCC(C)C (centres undefined) [2,6-Dimethyloctane] | 41 °C |
| CC(C)C [2-Methylpropane] | -87 °C |
| CCC(C)C(C)(C)CC (centres undefined) [3,3,4-Trimethylhexane] | 15 °C |

More lines, now with the values ahead:

| flash point | SMILES |
| --- | --- |
| -19 °C | CCC(C)(C)CC [3,3-Dimethylpentane] |
| 31 °C | CCC(C)C(C)C(C)CC (centres undefined) [3,4,5-Trimethylheptane] |
| 15 °C | CCCC(C)C(C)CC (centres undefined) [3,4-Dimethylheptane] |
| 38 °C | CCCC(CC)C(C)(C)C (centres undefined) [3-Ethyl-2,2-dimethylhexane] |
| 31 °C | CCC(C)(C(C)C)C(C)C [3-Ethyl-2,3,4-trimethylpentane] |
| -18 °C | CCC(CC)CC [3-Ethylpentane] |
| 41 °C | CCCC(CC)C(C)CC (centres undefined) [4-Ethyl-3-methylheptane] |
| 41 °C | CCCCC(CC)CCC (centres undefined) [4-Ethyloctane] |
| 99 °C | CCCCCCCCCCCCCC [Tetradecane] |

Remark: another data set of the same source

| flash point | SMILES |
| --- | --- |
| 109.2 °C | CCCCCCCCCCCCCC [Tetradecane] |

Remark: another data set of the same source

| SMILES | flash point |
| --- | --- |
| CC(C)(C)CCCl [1-Chloro-3,3-dimethylbutane] | 19.1 °C |
| CC(C)CCCl [1-Chloro-3-methylbutane] | 16.1 °C |
| CCC(C)CCCCCl (centres undefined) [1-Chloro-5-methylheptane] | 52.6 °C |
| CCCCCCCCCCCl [1-Chlorodecane] | 83.1 °C |
| CCCCCCCCCCCCCl [1-Chlorododecane] | 104.6 °C |
| CCCCCCCCCCCCCCCCCCl [1-Chloroheptadecane] | 145.2 °C |
| CCCCCCCCCCCCCCCCCCCl [1-Chlorooctadecane] | 184.1 °C |
| CCCCCCCCCCCCCCCl [1-Chlorotetradecane] | 130.1 °C |
| CC(C)(C)C(C)(C)Cl [2-Chloro-2,3,3-trimethylbutane] | 24.4 °C |
| CC(C)C(C)(C)Cl [2-Chloro-2,3-dimethylbutane] | 15.0 °C |
| CC(C)CC(C)(C)Cl [2-Chloro-2,4-dimethylpentane] | 29.8 °C |
| CC(C)CC(C)Cl (centres undefined) [2-Chloro-4-methylpentane] | 21 °C |
| CC(C)CCC(C)Cl (centres undefined) [2-Chloro-5-methylhexane] | 35.2 °C |
| CCCCCCCCCCC(C)Cl (centres undefined) [2-Chlorododecane] | 99.6 °C |
| CCCCCC(C)Cl (centres undefined) [2-Chloroheptane] | 39.2 °C |

The remaining lines, values ahead:

| flash point | SMILES |
| --- | --- |
| 21 °C | CCC(Cl)C(C)C (centres undefined) [3-Chloro-2-methylpentane] |
| 60.0 °C | CCCCC(Cl)(CC)CC [3-Chloro-3-ethylheptane] |
| 33.6 °C | CCCC(C)(Cl)CC (centres undefined) [3-Chloro-3-methylhexane] |
| 60.0 °C | CCCCCC(C)(Cl)CC (centres undefined) [3-Chloro-3-methyloctane] |
| 52.6 °C | CCCCCC(Cl)CC (centres undefined) [3-Chlorooctane] |
| 10 °C | CCC(Cl)CC [3-Chloropentane] |
| 39.2 °C | CCCC(Cl)CCC [4-Chloroheptane] |
| 99.5 °C | CCCCCCCC(Cl)CCCC (centres undefined) [5-Chlorododecane] |
| 69 °C | CCC(C)(Cl)CCCC(C)C (centres undefined) [6-Chloro-2,6-dimethyloctane] |

From a flash point compilation (Sun et al. 2020)
